Here are results for 14 compounds from the SangsterLogP compilation.

For orientation: logP means the decadic logarithm of the partition coefficient of the neutral form, usually between octanol and water. In turn, `CCCC(=NOCC)C1C(=O)CC2(CCCCC2)OC1=O` (centres undefined) had a logP of 3.62.
The compound `CCCC(=NOCC)C1C(=O)CC2(CC(C)CC(C)C2)OC1=O` (centres undefined) registered a logP of 4.48.
Under `CCCC(=NOCC)C1C(=O)CC2(CCC(CC)CC2)OC1=O` (centres undefined) stands 4.48.
The value for `CCCC(=NOCC)C1C(=O)CC2(CCSCC2)OC1=O` (centres undefined) was 2.9; that for `CCCC(=NOCC)C1C(=O)CC2(CCC(C(C)(C)C)CC2)OC1=O` (centres undefined) was 5.3; that for `CCCC(=NOCC)C1C(=O)CC(c2ccccc2)(c2ccccc2)OC1=O` (centres undefined) was 4.75.
The value for `CCCC(=NOCC)C1C(=O)CC2(C=CCCC2)OC1=O` (centres undefined) was 3.2; that for `CCCC(=NOCC)C1C(=O)CC2(CCC(C)CC2)OC1=O` (centres undefined) was 4.07; that for `CCCC(=NOCC)C1C(=O)CC(C)(C2CC2)OC1=O` (centres undefined) was 3.28.
In turn, `CC=C(C)C1(C)CC(=O)C(C(CCC)=NOCC)C(=O)O1` (centres undefined) registered a logP of 3.4.
`CCCC(=NOCC)C1C(=O)CC2(CCCc3ccccc32)OC1=O` (centres undefined): the logP stood at 5.
Under `CCCC(=NOCC)C1C(=O)CC2(CCCCC2C)OC1=O` (centres undefined) stands 3.9; under `CCCC(=NOCC)C1C(=O)CC2(CCC(C)C2)OC1=O` (centres undefined), 3.66.
`CCCC(=NOCC)C1C(=O)CC2(CCCC2)OC1=O` (centres undefined): the logP came to 3.22.
